Measurements: US8541460B2, “PDK-1/Akt signaling inhibitors” (The Ohio State University, priority 2003, dated 2013)

How the values were obtained:
Type in all cases: cell-based
HOP-92 = test: NCI DTP cell line screen (SRB), Non-Small Cell Lung Cancer
SW-620 = test: NCI DTP cell line screen (SRB), Colon Cancer
Method: (§1) Screening of compounds 70 and 71 against several cancer cell lines The human tumor cell lines of the cancer screening panel are grown in RPMI 1640 medium containing 5% fetal bovine serum and 2 mM L-glutamine. For a typical screening experiment, cells are inoculated into 96 well microtiter plates in 100 μL at plating densities ranging from 5,000 to 40,000 cells/well depending on the doubling time of individual cell lines. After cell inoculation, the microtiter plates are incubated at 37° C., 5% CO2, 95% air and 100% relative humidity for 24 h prior to addition of experimental drugs.
(§2) After 24 h, two plates of each cell line are fixed in situ with TCA, to represent a measurement of the cell population for each cell line at the time of drug addition (Tz). Experimental drugs are solubilized in dimethyl sulfoxide at 400-fold the desired final maximum test concentration and stored frozen prior to use. At the time of drug addition, an aliquot of frozen concentrate is thawed and diluted to twice the desired final maximum test concentration with complete medium containing 50 μg/ml gentamicin. Additional four, 10-fold or ½ log serial dilutions are made to provide a total of five drug concentrations plus control. Aliquots of 100 μl of these different drug dilutions are added to the appropriate microtiter wells already containing 100 μl of medium, resulting in the required final drug concentrations.
(§3) Following drug addition, the plates are incubated for an additional 48 h at 37° C., 5% CO2, 95% air, and 100% relative humidity. For adherent cells, the assay is terminated by the addition of cold TCA. Cells are fixed in situ by the gentle addition of 50 μl of cold 50% (w/v) TCA (final concentration, 10% TCA) and incubated for 60 minutes at 4° C. The supernatant is discarded, and the plates are washed five times with tap water and air dried. Sulforhodamine B (SRB) solution (100 μl) at 0.4% (w/v) in 1% acetic acid is added to each well, and plates are incubated for 10 minutes at room temperature. After staining, unbound dye is removed by washing five times with 1% acetic acid and the plates are air dried. Bound stain is subsequently solubilized with 10 mM trizma base, and the absorbance is read on an automated plate reader at a wavelength of 515 nm. For suspension cells, the methodology is the same except that the assay is terminated by fixing settled cells at the bottom of the wells by gently adding 50 μl of 80% TCA (final concentration, 16% TCA). Using the seven absorbance measurements [time zero, (Tz), control growth, (C), and test growth in the presence of drug at the five concentration levels (Ti)], the percentage growth is calculated at each of the drug concentrations levels. Percentage growth inhibition is calculated as: [(Ti−Tz)/(C−Tz)]×100 for concentrations for which Ti>/=Tz [(Ti−Tz)/Tz]×100 for concentrations for which Ti<Tz
(§4) Three dose response parameters are calculated for each experimental agent. […] The drug concentration resulting in total growth inhibition (TGI) is calculated from Ti=Tz. […] Values are calculated for each of these three parameters if the level of activity is reached; however, if the effect is not reached or is exceeded, the value for that parameter is expressed as greater or less than the maximum or minimum concentration tested.
(§5) The methods described were used to test compounds 70 and 71 on a panel of sixty cell lines under a screening service provided by the Developmental Therapeutics Program at the National Institutes of Health. Shown in FIG. 1C are 1, RPMI-8226 leukemia cells; 2; NCI-H322M non-small cell lung cancer cells; 3, HT29 colon cancer cells; 4, U251 CNS cancer cells; 5, SK-MEL-28 melanoma cancer cells; 6, SK-OV-3 ovarian cancer cells; 7, RXF 393 renal cancer cells; 8, PC-3 prostate cancer cells; 9, MDA-MB-231 breast cancer cells.

KM12 = test: NCI DTP cell line screen (SRB), Colon Cancer
Method: as §1, §2, §3, §4, §5

HCT-116 = test: NCI DTP cell line screen (SRB), Colon Cancer
Method: as §1, §2, §3, §4, §5

HS 578T = test: NCI DTP cell line screen (SRB), Breast Cancer; settings: HS 578T
Method: as §1, §2, §3, §4, §5

NCI/ADR-RES = test: NCI DTP cell line screen (SRB), Breast Cancer
Method: as §1, §2, §3, §4, §5

T-47D = test: NCI DTP cell line screen (SRB), Breast Cancer
Method: as §1, §2, §3, §4, §5

MDA-MB-231/ATCC = test: NCI DTP cell line screen (SRB), Breast Cancer
Method: as §1, §2, §3, §4, §5

[1] = test system: sixty human tumor cell lines; test: NCI DTP screen, means over sixty human tumor cell lines; settings: two-day treatment
Method: as §1, §2
Following drug addition, the plates are incubated for an additional 48 h at 37° C., 5% CO2, 95% air, and 100% relative humidity. For adherent cells, the assay is terminated by the addition of cold TCA. Cells are fixed in situ by the gentle addition of 50 μl of cold 50% (w/v) TCA (final concentration, 10% TCA) and incubated for 60 minutes at 4° C. […] Bound stain is subsequently solubilized with 10 mM trizma base, and the absorbance is read on an automated plate reader at a wavelength of 515 nm. […] Using the seven absorbance measurements [time zero, (Tz), control growth, (C), and test growth in the presence of drug at the five concentration levels (Ti)], the percentage growth is calculated at each of the drug concentrations levels. Percentage growth inhibition is calculated as: [(Ti−Tz)/(C−Tz)]×100 for concentrations for which Ti>/=Tz [(Ti−Tz)/Tz]×100 for concentrations for which Ti<Tz
as §4, with “tested. […]” for “tested.”

[2] = read-out: LC50 (the source's name)

Structure (SMILES): N=C(N)Nc1ccc(-n2nc(C(F)(F)F)cc2-c2ccc3c(ccc4ccccc43)c2)cc1 [Compound 71, 4-[5-(2-Phenanthrenyl)-3-(trifluoromethyl)-1H-pyrazol-1-yl]-phenyl-guanidine]
- GI50 (HOP-92): 1.01 µM
- TGI (HOP-92): 2.26E−06
- Mean Optical Densities (HOP-92; Log10 Concentration −4.0): 0.767
- Percent Growth (HOP-92; Log10 Concentration −4.0): −28%
- Mean Optical Densities (HOP-92; Log10 Concentration −5.0): 0.089
- Percent Growth (HOP-92; Log10 Concentration −5.0): −92%
- Mean Optical Densities (HOP-92; Log10 Concentration −6.0): 1.361
- Percent Growth (HOP-92; Log10 Concentration −6.0): 50%
- Mean Optical Densities (HOP-92; Log10 Concentration −7.0): 1.541
- Percent Growth (HOP-92; Log10 Concentration −7.0): 82%
- Mean Optical Densities (HOP-92; Log10 Concentration −8.0): 1.567
- Percent Growth (HOP-92; Log10 Concentration −8.0): 86%
- GI50 (SW-620): 1.75 µM
- TGI (SW-620): 3.13E−06
- Mean Optical Densities (SW-620; Log10 Concentration −4.0): 0.015
- Percent Growth (SW-620; Log10 Concentration −4.0): −92%
- Mean Optical Densities (SW-620; Log10 Concentration −5.0): −0.048
- Percent Growth (SW-620; Log10 Concentration −5.0): −100%
- Mean Optical Densities (SW-620; Log10 Concentration −6.0): 1.060
- Percent Growth (SW-620; Log10 Concentration −6.0): 98%
- Mean Optical Densities (SW-620; Log10 Concentration −7.0): 0.993
- Percent Growth (SW-620; Log10 Concentration −7.0): 91%
- Mean Optical Densities (SW-620; Log10 Concentration −8.0): 0.923
- Percent Growth (SW-620; Log10 Concentration −8.0): 83%
- GI50 (KM12): 1.59 µM
- TGI (KM12): 2.97E−06
- Mean Optical Densities (KM12; Log10 Concentration −4.0): 0.307
- Percent Growth (KM12; Log10 Concentration −4.0): −43%
- Mean Optical Densities (KM12; Log10 Concentration −5.0): 0.013
- Percent Growth (KM12; Log10 Concentration −5.0): −98%
- Mean Optical Densities (KM12; Log10 Concentration −6.0): 1.777
- Percent Growth (KM12; Log10 Concentration −6.0): 87%
- Mean Optical Densities (KM12; Log10 Concentration −7.0): 1.832
- Percent Growth (KM12; Log10 Concentration −7.0): 91%
- Mean Optical Densities (KM12; Log10 Concentration −8.0): 1.867
- Percent Growth (KM12; Log10 Concentration −8.0): 94%
- GI50 (HCT-116): 1.29 µM
- TGI (HCT-116): 2.55E−06
- Mean Optical Densities (HCT-116; Log10 Concentration −4.0): 0.058
- Percent Growth (HCT-116; Log10 Concentration −4.0): −49%
- Mean Optical Densities (HCT-116; Log10 Concentration −5.0): −0.022
- Percent Growth (HCT-116; Log10 Concentration −5.0): −100%
- Mean Optical Densities (HCT-116; Log10 Concentration −6.0): 0.525
- Percent Growth (HCT-116; Log10 Concentration −6.0): 68%
- Mean Optical Densities (HCT-116; Log10 Concentration −7.0): 0.633
- Percent Growth (HCT-116; Log10 Concentration −7.0): 86%
- Mean Optical Densities (HCT-116; Log10 Concentration −8.0): 0.607
- Percent Growth (HCT-116; Log10 Concentration −8.0): 82%
- GI50 (HS 578T): 1.86 µM
- TGI (HS 578T): 3.78E−06
- Mean Optical Densities (HS 578T; Log10 Concentration −4.0): 0.333
- Percent Growth (HS 578T; Log10 Concentration −4.0): −38%
- Mean Optical Densities (HS 578T; Log10 Concentration −5.0): 0.168
- Percent Growth (HS 578T; Log10 Concentration −5.0): −69%
- Mean Optical Densities (HS 578T; Log10 Concentration −6.0): 1.127
- Percent Growth (HS 578T; Log10 Concentration −6.0): 94%
- Mean Optical Densities (HS 578T; Log10 Concentration −7.0): 1.165
- Percent Growth (HS 578T; Log10 Concentration −7.0): 100%
- Mean Optical Densities (HS 578T; Log10 Concentration −8.0): 1.099
- Percent Growth (HS 578T; Log10 Concentration −8.0): 89%
- GI50 (NCI/ADR-RES): 2.64 µM
- TGI (NCI/ADR-RES): 7.73E−06
- Mean Optical Densities (NCI/ADR-RES; Log10 Concentration −4.0): 0.294
- Percent Growth (NCI/ADR-RES; Log10 Concentration −4.0): −47%
- Mean Optical Densities (NCI/ADR-RES; Log10 Concentration −5.0): 0.490
- Percent Growth (NCI/ADR-RES; Log10 Concentration −5.0): −12%
- Mean Optical Densities (NCI/ADR-RES; Log10 Concentration −6.0): 1.874
- Percent Growth (NCI/ADR-RES; Log10 Concentration −6.0): 95%
- Mean Optical Densities (NCI/ADR-RES; Log10 Concentration −7.0): 1.882
- Percent Growth (NCI/ADR-RES; Log10 Concentration −7.0): 96%
- Mean Optical Densities (NCI/ADR-RES; Log10 Concentration −8.0): 1.920
- Percent Growth (NCI/ADR-RES; Log10 Concentration −8.0): 98%
- CC50 (NCI/ADR-RES; [2]): > 100 µM
- GI50 (T-47D): < 0.01 µM
- TGI (T-47D): 1.98E−06
- Mean Optical Densities (T-47D; Log10 Concentration −4.0): 0.198
- Percent Growth (T-47D; Log10 Concentration −4.0): −53%
- Mean Optical Densities (T-47D; Log10 Concentration −5.0): 0.100
- Percent Growth (T-47D; Log10 Concentration −5.0): −76%
- Mean Optical Densities (T-47D; Log10 Concentration −6.0): 0.529
- Percent Growth (T-47D; Log10 Concentration −6.0): 32%
- Mean Optical Densities (T-47D; Log10 Concentration −7.0): 0.578
- Percent Growth (T-47D; Log10 Concentration −7.0): 47%
- Mean Optical Densities (T-47D; Log10 Concentration −8.0): 0.541
- Percent Growth (T-47D; Log10 Concentration −8.0): 36%
- CC50 (T-47D; [2]): 5.72 µM
- TGI (MDA-MB-231/ATCC): 1.66E−06
- Mean Optical Densities (MDA-MB-231/ATCC; Log10 Concentration −4.0): 0.389
- Percent Growth (MDA-MB-231/ATCC; Log10 Concentration −4.0): −39%
- Mean Optical Densities (MDA-MB-231/ATCC; Log10 Concentration −5.0): 0.015
- Percent Growth (MDA-MB-231/ATCC; Log10 Concentration −5.0): −98%
- Mean Optical Densities (MDA-MB-231/ATCC; Log10 Concentration −6.0): 0.709
- Percent Growth (MDA-MB-231/ATCC; Log10 Concentration −6.0): 27%
- Mean Optical Densities (MDA-MB-231/ATCC; Log10 Concentration −7.0): 0.830
- Percent Growth (MDA-MB-231/ATCC; Log10 Concentration −7.0): 78%
- Mean Optical Densities (MDA-MB-231/ATCC; Log10 Concentration −8.0): 0.756
- Percent Growth (MDA-MB-231/ATCC; Log10 Concentration −8.0): 47%
- mean TGI among the sixty cell lines [1]: 2.9 µM
- GI50 ([1]; read-out: mean GI50 among the sixty cell lines): 1.2 µM
- CC50 ([1]; read-out: mean LC50 among the sixty cell lines): 8.5 µM
